The values below come from patent US9447122B2, “Arginase inhibitors and methods of use thereof” (AstraZeneca AB, priority 2010, dated 2016).

The target of test [1] is T1, human arginase I (Homo sapiens, UniProt P05089).
T1 sequence (P05089 1-322): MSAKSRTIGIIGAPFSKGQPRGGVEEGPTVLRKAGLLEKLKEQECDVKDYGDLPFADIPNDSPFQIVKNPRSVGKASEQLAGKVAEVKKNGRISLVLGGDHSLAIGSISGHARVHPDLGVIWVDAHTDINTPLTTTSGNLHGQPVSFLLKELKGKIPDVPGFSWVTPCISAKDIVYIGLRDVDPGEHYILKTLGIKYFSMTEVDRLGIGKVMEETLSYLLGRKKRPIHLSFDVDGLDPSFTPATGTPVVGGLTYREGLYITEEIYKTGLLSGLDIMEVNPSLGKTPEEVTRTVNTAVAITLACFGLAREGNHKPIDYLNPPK
The test can be described thus: Arginase inhibition, QuantiChrom colorimetric urea assay, IC50 converted to Ki. It is filed as biochemical. The protocol:
(§1) For some compounds, their inhibitory potency at pH 7.5 was compared to the inhibitory potency of ABH at pH 7.5.
(§2) Quantitative determination of arginase activity was performed in a 96-well format by a colorimetric method using the QuantiChrom™ Arginase Assay Kit available from BioAssay Systems (Hayward, Calif., Catalog No. DARG-200) according to the manufacturer's protocol. Modifications were made to reagent quantities to suit the assaying of a highly purified sample.
(§3) The intensity of the color was directly proportional to the arginase activity in the sample.
(§4) The rate of urea production was measured in the presence of twelve different concentrations of each potential inhibitor compound. In a typical assay, seven different compounds were tested relative to a control inhibitor (e.g. ABH) against one enzyme (either human ArgI or human ArgII) at a particular pH (either 9.5 or 7.5). The pH of the solution was controlled using an appropriate pH buffering compound at 60 mM concentrations; for example, 60 mM glycine (pH 9.5) or 60 mM HEPES (pH 7.5). The half maximal inhibitory concentration (IC50) was determined by constructing a dose-response curve.

Test [2] deals with T2, human arginase II (Homo sapiens, UniProt P78540).
T2 sequence (P78540 23-354): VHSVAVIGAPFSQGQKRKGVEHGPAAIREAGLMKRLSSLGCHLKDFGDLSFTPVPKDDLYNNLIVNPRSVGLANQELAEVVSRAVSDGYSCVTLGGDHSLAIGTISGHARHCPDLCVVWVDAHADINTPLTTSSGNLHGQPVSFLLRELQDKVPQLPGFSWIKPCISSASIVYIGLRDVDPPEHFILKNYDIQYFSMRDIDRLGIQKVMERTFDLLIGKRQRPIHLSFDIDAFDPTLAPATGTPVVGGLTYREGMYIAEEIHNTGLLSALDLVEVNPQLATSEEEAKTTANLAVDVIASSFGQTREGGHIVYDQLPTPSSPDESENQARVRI
The test is described as above. It is filed as biochemical. On the procedure: as §1, §2, §3, §4

Test [3] concerns Arg I and/or Arg II. As to the kind of experiment: pH effect: inhibitory potency at pH 7.5 compared with pH 9.5. It is filed as biochemical, human. To be noted: for increased potency for at least one isozyme: Table 2, pH 7.5 vs pH 9.5; for potency at pH 7.5 as compared to pH 9.5, arginases: both or at least one of the arginases. The protocol: as §1
as §4, with “curve. As IC50 values are dependent upon the measurement conditions, the IC50 values were converted to the inhibitor binding affinity (K1) using the Cheng-Prusoff equation and the affinity constant (Km) of L-arginine which was estimated with the same activity assay (see, e.g., Cheng et al., 1973, Biochem. Pharmacol. 22:3099-108).” for “curve.”

The mark [4] stands for this setting: Table 2, pH 7.5, read-out: human arginase I pH 7.5, Ki assigned value.
[5] abbreviates: Table 2, pH 9.5, read-out: human arginase I pH 9.5, Ki assigned value.
The mark [6] stands for this setting: Table 2, pH 7.5, read-out: human arginase II pH 7.5, Ki assigned value.
Setting [7] is: Table 2, pH 9.5, read-out: human arginase II pH 9.5, Ki assigned value.
[8] abbreviates: Table 3, pH 7.5, read-out: human Arginase I pH 7.5, Ki assigned value.
Setting [9] is: Table 3, pH 9.5, read-out: human Arginase I pH 9.5, Ki assigned value.
Setting [10] is: Table 3, pH 7.5, read-out: human Arginase II pH 7.5, Ki assigned value.
Setting [11] is: Table 3, pH 9.5, read-out: human Arginase II pH 9.5, Ki assigned value.

Where a name gives a salt, the structure may show the parent alone. Read-outs that look alike come from different tables or passages of the source.

For orientation: Ki means a dissociation constant, usually derived from enzyme kinetics or from competition with a known ligand. As for `NC(CCCCB(O)O)(CCCC1CCNCC1)C(=O)O` (stereo not drawn) [Comparative Example 1, reference compound], the inhibitory constant (Ki) in test [1] (setting [4]) was 101 to 250 nM; in test [1] (setting [5]), 11 to 50 nM; in test [2] (setting [6]) it was > 400 nM; in test [2] (setting [7]), < 10 nM. Further, in test [3], the “increased potency for at least one isozyme” value was “no ^b”. The “potency at pH 7.5 as compared to pH 9.5, arginases” value in test [3] is on record as “lower potencies”.
In the case of `NC(CCCCB(O)O)(CCCC1CCN(Cc2ccc(Cl)c(Cl)c2)CC1)C(=O)O` (stereo not drawn) [Comparative Example 2, reference compound], the Ki lay within 101 to 250 nM in test [1] (setting [4]), 11 to 50 nM in test [1] (setting [5]), 101 to 250 nM in test [2] (setting [6]) and 11 to 50 nM in test [2] (setting [7]). Also, the “increased potency for at least one isozyme” value in test [3] is listed as “no ^b”. Further, the “potency at pH 7.5 as compared to pH 9.5, arginases” value in test [3] is recorded as “decreased potencies”.
In the case of `NC(CCCCB(O)O)(CCCC1CCN(Cc2ccc(F)cc2)CC1)C(=O)O` (stereo not drawn) [Comparative Example 3, reference compound], the inhibition constant Ki in test [1] (setting [4]) is 251 to 400 nM; in test [1] (setting [5]) it was 11 to 50 nM; in test [2] (setting [6]) it was 251 to 400 nM; in test [2] (setting [7]) it was 11 to 50 nM. Moreover, the “increased potency for at least one isozyme” value in test [3] is reported as “no ^b”. Moreover, the “potency at pH 7.5 as compared to pH 9.5, arginases” value in test [3] is on record as “decreased potencies”.
As to `NC(CCCCB(O)O)(CCCN1CCNCC1)C(=O)O` (stereo not drawn) [Comparative Example 4, 2-Amino-6-borono-2-(3-(piperazine-1-yl)propyl)hexanoic acid trifluoroacetate salt, reference compound], the Ki is 11 to 50 nM in test [1] (setting [4]), 51 to 100 nM in test [1] (setting [5]), > 400 nM in test [2] (setting [6]) and 11 to 50 nM in test [2] (setting [7]). Moreover, the “change of human arginase I inhibitory potency” value in test [1] (pH decreased from 9.5 to 7.5) is “increased potency”. In addition, the “increased potency for at least one isozyme” value in test [3] is recorded as “yes ^a”.
For the molecule `CN(C)CCNCCCC(N)(CCCCB(O)O)C(=O)O` (stereo not drawn) [Example 89], the Ki in test [1] (setting [8]) is < 10 nM; in test [1] (setting [9]), < 10 nM; in test [2] (setting [10]), < 10 nM; in test [2] (setting [11]) it was 11 to 50 nM.
In the case of `NC(CCCCB(O)O)(CCCCN1CCNCC1)C(=O)O` (stereo not drawn) [Example 93], the Ki was 11 to 50 nM in test [1] (setting [8]), 11 to 50 nM in test [1] (setting [9]), > 400 nM in test [2] (setting [10]) and 11 to 50 nM in test [2] (setting [11]).
For the molecule `NC(CCCCB(O)O)(CCCCN1CCN(c2ccc(Cl)c(Cl)c2)CC1)C(=O)O` (stereo not drawn) [Example 94], the Ki is 11 to 50 nM in test [1] (setting [8]), 11 to 50 nM in test [1] (setting [9]), < 10 nM in test [2] (setting [10]) and 11 to 50 nM in test [2] (setting [11]).
For the molecule `NC(CCCCB(O)O)(CCCCN1CCC(Cc2ccc(F)c(F)c2)CC1)C(=O)O` (stereo not drawn) [Example 95], the Ki in test [1] (setting [8]) was 51 to 100 nM; in test [1] (setting [9]), < 10 nM; in test [2] (setting [10]), 11 to 50 nM; in test [2] (setting [11]), < 10 nM.
Turning to `NC(CCCCB(O)O)(CCCCN1CCc2ccccc2C1)C(=O)O` (stereo not drawn) [Example 96], the inhibitory constant (Ki) in test [1] (setting [8]), in test [1] (setting [9]), in test [2] (setting [10]) and in test [2] (setting [11]) was 11 to 50 nM each time.
As to `NC(CCCCB(O)O)(CCCN1CCC(C(=O)c2ccc(F)cc2)CC1)C(=O)O` (stereo not drawn) [Example 101], the Ki in test [1] (setting [8]) was < 10 nM; in test [1] (setting [9]) it was 11 to 50 nM; in test [2] (setting [10]) it was < 10 nM; in test [2] (setting [11]) it was 11 to 50 nM.
On to `NC(CCCCB(O)O)(CCCN1C2CCC1CC(n1cnc3ccccc31)C2)C(=O)O` (stereo not drawn) [Example 102], for which the Ki was < 10 nM in test [1] (setting [8]), 11 to 50 nM in test [1] (setting [9]), < 10 nM in test [2] (setting [10]) and 11 to 50 nM in test [2] (setting [11]).
For `NC(CCCCB(O)O)(CCCN1CCC(Nc2ccccc2)CC1)C(=O)O` (stereo not drawn) [Example 103], the Ki in test [1] (setting [8]) was < 10 nM; in test [1] (setting [9]), 11 to 50 nM; in test [2] (setting [10]), < 10 nM; in test [2] (setting [11]) it was 11 to 50 nM.
On to `CN1CCN(CCCC(N)(CCCCB(O)O)C(=O)O)CC1` (stereo not drawn) [Example 106], for which the Ki in test [1] (setting [8]) lay in the range of 11 to 50 nM; in test [1] (setting [9]), 11 to 50 nM; in test [2] (setting [10]) it was 11 to 50 nM; in test [2] (setting [11]), 251 to 400 nM.
In the case of `NC(CCCCB(O)O)(CCCN1CCC(NC(=O)Nc2ccc(Cl)c(Cl)c2)C1)C(=O)O` (stereo not drawn) [Example 112], the Ki is < 10 nM in test [1] (setting [8]), < 10 nM in test [1] (setting [9]), < 10 nM in test [2] (setting [10]) and 11 to 50 nM in test [2] (setting [11]).
For the molecule `NC(CCCCB(O)O)(CCCN1CCC(NS(=O)(=O)c2ccc(Cl)c(Cl)c2)C1)C(=O)O` (stereo not drawn) [Example 114], the Ki in test [1] (setting [8]) was < 10 nM; in test [1] (setting [9]) it was 11 to 50 nM; in test [2] (setting [10]), < 10 nM; in test [2] (setting [11]), 11 to 50 nM.
In the case of `NC(CCCCB(O)O)(CCCn1cnc2ccccc21)C(=O)O` (stereo not drawn) [Example 116], the Ki in test [1] (setting [8]) was 251 to 400 nM; in test [1] (setting [9]), 11 to 50 nM; in test [2] (setting [10]), 11 to 50 nM; in test [2] (setting [11]), 11 to 50 nM.
With `CN(CCCC(N)(CCCCB(O)O)C(=O)O)Cc1ccc2ccccc2c1` (stereo not drawn) [Example 120], the Ki in test [1] (setting [8]) is < 10 nM; in test [1] (setting [9]), 11 to 50 nM; in test [2] (setting [10]) it was < 10 nM; in test [2] (setting [11]) it was < 10 nM.
For `NC(CCCCB(O)O)(CCCN1CCN(C(=O)c2ccc(Cl)c(Cl)c2)CC1)C(=O)O` (stereo not drawn) [Example 129, 2-amino-6-borono-(3-(4-(3,4-dichlorobenzoyl)piperazine-1-yl)propyl)hexanoic acid], the Ki in test [1] (setting [8]) fell in the range of 11 to 50 nM; in test [1] (setting [9]), 51 to 100 nM; in test [2] (setting [10]), 251 to 400 nM; in test [2] (setting [11]), 51 to 100 nM. The “selectivity for arginase I over arginase II” value in test [3] (at pH 7.5 / lower pHs) is listed as “selectivity for arginase I over arginase II”.
